Data as given in US5643876A, “Biologically active synthetic magainin peptides” (The United States of America as represented by the …, priority 1992, dated 1997).
No end group written: not given here.

Tests used:
E. coli Y1088 = assay: Zone of inhibition on lawn of E. coli Y1088; type: cell-based
Amoeba proteus = assay: Antiprotozoan activity, physical lysis by light microscopy; type: cell-based; conditions: approximate concentration, visual assessment by light microscopy
From the text: (§1) Table IV lists the approximate concentration of Magainins which induces physical lysis of several representative protozoan species. These determinations were made by visual assessment of the treated organisms by light microscopy. Of course, the optimal effective antimicrobial concentration of a particular Magainin can be easily determined in a routine manner without undue experimentation by techniques well known to one of ordinary skill in the art.

Euglena gracilis = assay: as above; type: cell-based; conditions: approximate concentration, visual assessment by light microscopy
From the text: as §1

Paramecium caudatum = assay: as above; type: cell-based; conditions: approximate concentration, visual assessment by light microscopy
From the text: as §1

[1] = tested on: Pseudomonas aeruginosa (27853); assay: Minimal inhibitory concentration in trypticase soy broth; type: cell-based
From the text: (§2) Table III also lists the range of minimal inhibitory concentrations for various organisms assayed in trypticase soy broth. These determinations were made following standard techniques well known in the art and described in such publications as, DIFCO Manual, 10th edition, 1984, pages 78-80.

Proteus vulgaris (13315) = assay: as above; type: cell-based
From the text: as §2

[2] = tested on: Staphylococcus aureus (25923); assay: as above; type: cell-based
From the text: as §2

Eschericia coli D31 = assay: as above; type: cell-based
From the text: as §2

[3] = tested on: Streptococcus faecalis (19433); assay: as above; type: cell-based
From the text: as §2

[4] = tested on: Shigella flexneri (12022); assay: as above; type: cell-based
From the text: as §2

[5] = tested on: Citrobacter freundii (8090); assay: as above; type: cell-based
From the text: as §2

[6] = tested on: Acinetobacter caloaceticus (19606); assay: as above; type: cell-based
From the text: as §2

[7] = tested on: Serratia marcescens (8100); assay: as above; type: cell-based
From the text: as §2

Eschericia coli (25922) = assay: as above; type: cell-based
From the text: as §2

Candida albicans (14053) = assay: as above; type: cell-based
From the text: as §2

[8] = tested on: Klebisiella pneumonia (13883); assay: as above; type: cell-based
From the text: as §2

[9] = tested on: Streptococcus pyogenes (19615); assay: as above; type: cell-based
From the text: as §2

[10] = tested on: Enterobacter aerogenes (13048); assay: as above; type: cell-based
From the text: as §2

[11] = tested on: Staphyloccus epidermidis (1228); assay: as above; type: cell-based
From the text: as §2

[12] = tested on: Salmonella typhimurium (14028); assay: as above; type: cell-based
From the text: as §2

Shigella sonnei (25931) = assay: as above; type: cell-based
From the text: as §2

[13] = tested on: Enterobacter sonnei (23355); assay: as above; type: cell-based
From the text: as §2

Saccharomyces cerviscae = assay: Comparison of potencies, MIC (Table V); type: cell-based
From the text: (§3) It is pointed that the addition of a carboxyl-terminal amide to Magainin II results in about a 5-fold increase in potency of the peptide in several systems when compared to Magainin II. This simple modification illustrates one of several ways of modifying the polypeptides of the present invention.

Pseudomonas aeruginosa = assay: Comparison of potencies, MIC (Table V); type: cell-based
From the text: as §3

Acanthomeba castellani = assay: Comparison of potencies, MIC (Table V); type: cell-based
From the text: as §3

E. coli D-31 = assay: Comparison of potencies, MIC (Table V); type: cell-based; conditions: E. coli D-31 (Table V)
From the text: as §3

Plasmodium gallinaceum = assay: Activity against malarial parasite, direct light microscopy; type: cell-based; conditions: 100 ug/ml in phosphate buffered saline, within seconds
Experimental: Observations of activity were conducted by direct light microscopy. A sample of female and male zygotic forms of the chicken malarial parasite were suspended in phosphate buffered saline. Magainin II(g) was added to each at 100 ug/ml.

HTLV III = assay: Anti-viral activity against HTLV III in SUPT1 tester cells; type: cell-based; conditions: 200 μg/ml, virus preincubated 37° C. 30 min
Experimental: HTLV III was obtained from culture media from the producing cell line A.3101. The media was diluted with MEM containing 10% fetal calf serum (FCS) to a viral concentration of about 10^4 pfu/ml. Magainin II(g) was added to the viral innoculum (1 ml) to a concentration of 200 μg/ml and incubated at 37° C. for 30 min. The viral innoculum was then added to a well containing 10^3 tester cells (cell line, SUPT1) and 1 ml of MEM with 10% FCS. Viral activity was assessed by formation of syncytia and cell death in the test cell culture as compared with cell cultures unexposed to Magainin peptides.

human sperm = assay: Spermicidal activity, sperm motility by light microscopy; type: cell-based; conditions: human sperm in phosphate buffered saline, room temperature
Experimental: Magainin II(g) was added in various concentrations to a suspension of human sperm in phosphate buffered saline. Motility was assayed by visual inspection under a light microscope. Observations were conducted at room temperature (about 22°-25° C.). The approximate number of motile sperm observed in 20 independent fields was noted as a function of concentration. Magainin II(g) inhibits sperm motility by 50% at 35 μg/ml and by 100% at 75 μg/ml.

Vero Cells = assay: Cytotoxicity by loss of Trypan Blue exclusion; type: cell-based, monkey; conditions: 30 minutes after addition, MEM with 10% fetal calf serum
From the text: (§4) This activity is considered a significant attribute of the Magainin peptides in that it permits their use in the killing of animal cells. […] The most resistant appears to be the epithelial cell from the oral mucosa. The most sensitive is a transformed monkey kidney cell. […] This includes anti-tumor activity, in vivo cytolysis or growth inhibition of malignant cells, such as in leukemias and selective reduction in specific cell populations (e.g., removal of lymphocytes from blood).
(§5) Cells were suspended in standard minimal Eagles medium containing 10% fetal calf serum. VERO cells and KB cells were obtained from the American Type Culture Collection. Human diploid fibroblasts were propagated from a primary dermal biopsy. Human lymphocytes were collected from a buffy coat preparation by centrifugation in ficoll-hyapaque medium. Human buccal epithelium was obtained by scraping the oral mucosa with a glass cover-slip and resuspending the cellular scraping in MEM. Cytotoxicity was determined by loss of Trypan Blue exclusion, following addition of dye to the medium. Cytotoxicity was assessed 30 minutes after addition of the peptide. Concentration noted represents the concentration of peptide resulting in 50% toxicity as determined visually by light microscopic examination of the treated cells.

Human KB Cells = assay: Cytotoxicity by loss of Trypan Blue exclusion; type: cell-based; conditions: 30 minutes after addition
From the text: as §4, §5

[14] = tested on: Peripheral Human Lymphocytes; assay: Cytotoxicity by loss of Trypan Blue exclusion; type: cell-based; conditions: 30 minutes after addition
From the text: as §4, §5

[15] = tested on: Human Diploid Fibroblasts; assay: Cytotoxicity by loss of Trypan Blue exclusion; type: cell-based; conditions: 30 minutes after addition
From the text: as §4, §5

[16] = tested on: Human Buccal Epithelial Cells; assay: Cytotoxicity by loss of Trypan Blue exclusion; type: cell-based; conditions: 30 minutes after addition
From the text: as §4, §5

| Substance | Zone of Inhibition on Lawn of E. coli Y1088 Generated by 50 μg of the Peptide (E. coli Y1088) | Concentration required for osmotic lysis (Amoeba proteus) | Concentration required for osmotic lysis (Euglena gracilis) | Concentration required for osmotic lysis (Paramecium caudatum) | Minimal Inhibitory Concentration [1] | Minimal Inhibitory Concentration (Proteus vulgaris (13315)) | Minimal Inhibitory Concentration [2] | Minimal Inhibitory Concentration (Eschericia coli D31) | Minimal Inhibitory Concentration [3] | Minimal Inhibitory Concentration [5] | Minimal Inhibitory Concentration [6] | Minimal Inhibitory Concentration [7] | Minimal Inhibitory Concentration (Eschericia coli (25922)) | Minimal Inhibitory Concentration (Candida albicans (14053)) | Minimal Inhibitory Concentration [9] | Minimal Inhibitory Concentration [10] | Minimal Inhibitory Concentration [11] | Minimal Inhibitory Concentration [12] | further results |
| --- | --- | --- | --- | --- | --- | --- | --- | --- | --- | --- | --- | --- | --- | --- | --- | --- | --- | --- | --- |
| FLHSAKKFGKAFVGEIMNS [Magainin II(d), (NH2)FLHSAKKFGKAFVGEIMNS(OH)] | 2 mm | – | – | – | – | – | – | – | – | – | – | – | – | – | – | – | – | – | – |
| GIGKFLHSAGKFGKAFVGEIMKS [Magainin I] | – | 5 µg/mL | 5 µg/mL | 5 µg/mL | > 100 µg/mL | > 100 µg/mL | > 100 µg/mL | 1 to 20 µg/mL | > 100 µg/mL | > 100 µg/mL | 7 to 35 µg/mL | > 100 µg/mL | 7 to 35 µg/mL | > 100 µg/mL | 7 to 35 µg/mL | > 100 µg/mL | > 100 µg/mL | > 100 µg/mL | Minimal Inhibitory Concentration [4]: 35 to 70 µg/mL; Minimal Inhibitory Concentration [8]: > 100 µg/mL |
| GIGKFLHSAKKFGKAFVGEIMN [Magainin III] | – | 5 µg/mL | 5 µg/mL | 5 µg/mL | 35 to 70 µg/mL | > 100 µg/mL | > 100 µg/mL | 1 to 10 µg/mL | > 100 µg/mL | 7 to 35 µg/mL | 7 to 35 µg/mL | > 100 µg/mL | 7 to 35 µg/mL | > 100 µg/mL | 7 to 35 µg/mL | > 100 µg/mL | 35 to 70 µg/mL | 35 to 70 µg/mL | Minimal Inhibitory Concentration [8]: > 100 µg/mL |
| GIGKFLHSAKKFGKAFVGEIMNS [Magainin II] | – | 5 µg/mL | 5 µg/mL | 5 µg/mL | 35 to 70 µg/mL | > 100 µg/mL | 35 to 70 µg/mL | 1 to 10 µg/mL | 35 to 70 µg/mL | 7 to 35 µg/mL | 1 to 7 µg/mL | > 100 µg/mL | 1 to 7 µg/mL | 35 to 70 µg/mL | 1 to 7 µg/mL | 7 to 35 µg/mL | 7 to 35 µg/mL | 35 to 70 µg/mL | Minimal Inhibitory Concentration (Shigella sonnei (25931)): 1 to 7 µg/mL; Minimal Inhibitory Concentration [13]: 1 to 7 µg/mL; MIC (Saccharomyces cerviscae): 50 µg/mL; MIC (Pseudomonas aeruginosa): 70 µg/mL; MIC (Acanthomeba castellani): 15 µg/mL; MIC (E. coli D-31): 10 µg/mL |
| GIGKFLHSAKKFGKAFVGEIMNS-NH2 [Magainin II(g)] | 15 mm | – | – | – | – | – | – | – | – | – | – | – | – | – | – | – | – | – | Effect on female and male zygotic forms of Plasmodium gallinaceum (Plasmodium gallinaceum): both forms underwent evident physical lysis; Reverse transcriptase activity in culture fluids (HTLV III): no greater reverse transcriptase activity than uninfected cells; Viral activity by formation of syncytia and cell death in test cell culture (HTLV III; 2 weeks incubation): appeared identical to cultures not exposed to virus; Concentration that inhibits sperm motility by 50% (human sperm): 35 µg/mL; Concentration that inhibits sperm motility by 100% (human sperm): 75 µg/mL; Concentration of peptide resulting in 50% toxicity (Vero Cells): 25 µg/mL; MIC (Saccharomyces cerviscae): 10 µg/mL; MIC (Pseudomonas aeruginosa): 15 µg/mL; MIC (Acanthomeba castellani): 3 µg/mL; MIC (E. coli D-31): 2 µg/mL; Concentration of peptide resulting in 50% toxicity (Human KB Cells): 125 µg/mL; Concentration of peptide resulting in 50% toxicity [14]: 75 µg/mL; Concentration of peptide resulting in 50% toxicity [15]: 250 µg/mL; Concentration of peptide resulting in 50% toxicity [16]: 500 µg/mL |
| GIGKYLHSAKKFGKAFVGEIMNS-NH2 [Magainin II(h)] | 7 mm | – | – | – | – | – | – | – | – | – | – | – | – | – | – | – | – | – | – |
| GKFLHSAKKFGKAFVGEIMNS [Magainin II(b)] | 10 mm | – | – | – | – | – | – | – | – | – | – | – | – | – | – | – | – | – | – |
| HSAKKFGKAFVGEIMNS [Magainin II(f), (NH2)HSAKKFGKAFVGEIMNS(OH)] | 0 mm | – | – | – | – | – | – | – | – | – | – | – | – | – | – | – | – | – | Effect on female and male zygotic forms of Plasmodium gallinaceum (Plasmodium gallinaceum): no visible effect |
| KFLHSAKKFGKAFVGEIMNS [Magainin II(c)] | 10 mm | – | – | – | – | – | – | – | – | – | – | – | – | – | – | – | – | – | – |
| LHSAKKFGKAFVGEIMNS [Magainin II(e), (NH2)LHSAKKFGKAFVGEIMNS(OH)] | 1 mm | – | – | – | – | – | – | – | – | – | – | – | – | – | – | – | – | – | – |
